This note sets out measurements from patent publication US20060058320A1, “[1,2,4] Triazolo[1,5-c]pyrimidine derivatives” (KYOWA HAKKO KOGYO CO., LTD., priority 2002, published 2006).

The structures appear in SMILES notation. Counter-ions that a name gives are not always drawn. Like-named read-outs stand apart in the source and are kept apart here.

One data set addresses T1, adenosine A2A receptor (Rattus norvegicus, UniProt P30543).
T1 construct: from tissue; host or cells: rat corpus striatum membrane preparation
Kind of data set: Adenosine A2A receptor binding test (3H-CGS 21680 binding). The note with it: for inhibition at 0.1 µM: read-out: A2A Receptor inhibition rate (%) at 10^−7 mol/L. The protocol:
The test was carried out according to the method of Bruns et al. [Molecular Pharmacology, vol. 29, p.
Rat corpus striatum was suspended in an ice-cold 50 mmol/L tris(hydroxymethyl)aminomethane hydrochloride (referred to as “Tris HCl” hereinafter) buffer (pH 7.7) using a Polytron homogenizer (produced by Kinematica Co.). The suspension was centrifuged (50,000×g, 10 minutes), and the resulting precipitate was again suspended in the same amount of a 50 mmol/L Tris HCl buffer, followed by centrifugation under the same conditions. The resulting finalprecipitate was again suspended in a 50 mmol/L-Tris HCl buffer [containing 10 mmol/L of magnesium chloride and 0.02 unit/mg tissue of adenosine deaminase (produced by Sigma Co.)] so that the tissue concentration was 5 mg (wet weight)/mL.
The radioactivity on the filter was determined with a liquid scintillation counter (produced by Packard Instrument Co.).
In the equation, X represents Amount of binding in the presence of a medicament, Y represents Amount of nonspecific binding, and Z represents Amount of total binding.

Data set [1] relates to CGS 21680-induced catalepsy. The data set is described as follows: Activity on CGS 21680-induced catalepsy. The note with it: for inhibition in vivo at 10 mg/kg: Mus musculus, po, read-out: Remission ratio (%); for Total score: total catalepsy score of 10 mice (maximum 50 points; 40 points or less = positive), one hour after administration; for Number of animals showing remission: cases with catalepsy score of 4 points or less in 10 cases. The class given is in vivo, mice. On the procedure: Parkinson's disease is a motor disorder based on degeneration and cell death of the nigrostriatal dopaminergic neurons. When CGS 21680 (adenosine A2A receptor agonist) is administered into the intracerebral ventricle, the inhibitory synaptic transmission of GABA in the medium sized spiny neurons in the corpus striatum is inhibited directly via the adenosine A2A receptor [Journal of Neuroscience, vol. 16, p. 605 (1996)]. Accordingly, it is concidered that the adenosine A2A receptor agonists positively regulate the output of the GABAergic neurons from the corpus striatum to the globus pallidus lateralis, and, as a result, catalepsy is induced by the administration of CGS 21680.
The test was carried out using ten 5-week age male ddY mice (22-25 g in body weight, Japan SLC) per group. CGS 21680 (produced by RBI Co) was dissolved in physiological saline (produced by Otsuka Pharmaceutical Co., Ltd.), and 10 μg/20 μL of the solution was injected into mouse intracerebral ventricle. Each test compound was used by suspending it in distilled water containing 0.3% of polyoxylene (20) sorbitan monooleate (referred to as “Tween 80” hereinafter) (produced by Otsuka Pharmaceutical Co., Ltd.). The suspension containing each test compound or a solution containing no test Compound (distilled water containing 0.3% of Tween 80; used as a control) was orally administered (0.1 mL per 10 g of mouse body weight) 30 minutes before the injection of CGS 21680 into the intracerebral ventricle. One hour after the administration of the each test compound, only forelimbs or only hindlimbs of each mouse were laid on a vertically arranged stand made of acryl and having a size of 4.5 cm in height and 1.0 cm in width to measure catalepsy symptoms. All of the test compounds were administered orally in a dose of 10 mg/kg.
The criteria of the catalepsy score are shown below.
The effect was decided by a total catalepsy score of 10 mice in one group (the maximum score: 50 points). When the total score was 40 points or less, the activity of the compounds was decided positive. The number of the animals showing remission of catalepsy was expressed by the number of cases showing a catalepsy score of 4 points or less in 10 cases. The catalepsy remission ratio was expressed as the percentage of the total score in the test compound-administered group to the total score in the control group.

Setting [2] is: test compound 10^−7 mol/L, 3H-CGS 21680 binding, rat corpus striatum.
Setting [3] is: from total score of test group and control group, 10 mg/kg orally.

T1 sequence (P30543 whole entry): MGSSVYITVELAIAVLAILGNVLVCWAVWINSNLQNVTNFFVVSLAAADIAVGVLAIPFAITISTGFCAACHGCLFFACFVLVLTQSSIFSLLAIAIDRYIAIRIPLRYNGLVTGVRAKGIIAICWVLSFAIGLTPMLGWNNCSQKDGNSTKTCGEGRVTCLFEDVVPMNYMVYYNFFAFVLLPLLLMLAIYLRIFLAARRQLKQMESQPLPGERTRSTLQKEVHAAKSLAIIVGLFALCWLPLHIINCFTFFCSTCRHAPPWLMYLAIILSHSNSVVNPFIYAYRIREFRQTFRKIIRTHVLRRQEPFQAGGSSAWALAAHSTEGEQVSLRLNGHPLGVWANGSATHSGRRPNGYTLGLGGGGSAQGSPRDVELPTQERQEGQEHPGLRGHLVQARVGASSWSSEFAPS

With `Nc1nc(CCO)cc2nc(-c3ccco3)nn12` [Compound 67, 5-Amino-2-(2-furyl)-7-(2-hydroxyethyl)[1,2,4]triazolo[1,5-c]pyrimidine], the melting point was 207.2 to 207.8 °C. In addition, the inhibition at 0.1 µM at adenosine A2A receptor (setting [2]) is 91%.
Consider `COCCN1CCN(Cc2cc3nc(-c4ccco4)nn3c(N)n2)CC1` [Compound 49, 5-Amino-2-(2-furyl)-7-[4-(2-methoxyethyl)piperazin-1-yl-methyl][1,2,4]triazolo[1,5-c]pyrimidine dihydrochloride], for which the inhibition in vivo at 10 mg/kg in data set [1] came to 92%. Also, in data set [1] (10 mg/kg orally), the Total score amounted to 4. Besides, the inhibition at 0.1 µM at adenosine A2A receptor (setting [2]) stood at 89%.
`Nc1nc(CCc2ccccc2)cc2nc(-c3ccco3)nn12` [Compound 66, 5-Amino-2-(2-furyl)-7-(2-phenylethyl)[1,2,4]triazolo[1,5-c]-pyrimidine] yielded a melting point of 205 to 205.1 °C. The inhibition at 0.1 µM on adenosine A2A receptor (setting [2]) is 82%.
As for `CC1CCN(C(=O)c2cc3nc(-c4ccco4)nn3c(N)n2)CC1` [Compound 143, 5-Amino-2-(2-furyl)[1,2,4]triazolo[1,5-c]pyrimidin-7-yl 4-methylpiperidino ketone], the inhibition in vivo at 10 mg/kg in data set [1] (setting [3]) came to 90%. Moreover, the Total score in data set [1] (10 mg/kg orally) is 5. Besides, the inhibition at 0.1 µM at adenosine A2A receptor (setting [2]) was found to be 70%.
On the same counts, the results for `Nc1nc(C#CC2(O)CCCC2)cc2nc(-c3ccco3)nn12` [Compound 69, 5-Amino-2-(2-furyl)-7-[2-(1-hydroxycyclopentyl)ethynyl][1,2,4]triazolo[1,5-c]pyrimidine] are 96%, 2 and 78%.
`CC(=O)c1cc2nc(-c3ccco3)nn2c(N)n1` [Compound 38, 7-Acetyl-5-amino-2-(2-furyl)[1,2,4]triazolo[1,5-c]pyrimidine] returned a melting point of 221.2 to 221.5 °C. In addition, the inhibition at 0.1 µM on adenosine A2A receptor (setting [2]) was determined as 84%.
On the same counts, the results for `Nc1nc(C=O)cc2nc(-c3ccco3)nn12` [Compound 41, 5-Amino-7-formyl-2-(2-furyl)[1,2,4]triazolo[1,5-c]pyrimidine] are 270 °C (dec.) and 54%.
Turning to `CC(C)N(Cc1ccn(C)c1)C(=O)c1cc2nc(-c3ccco3)nn2c(N)n1` [Compound 116, 5-Amino-2-(2-furyl)[1,2,4]triazolo[1,5-c]pyrimidine-7-carboxylic acid [N-isopropyl-N-(1-methylpyrrol-3-ylmethyl)]amide], in data set [1] (10 mg/kg orally), the “Number of animals showing remission” value stood at 9 and the Total score is listed as 9. Further, the “Remission ratio (%)” value in data set [1] (setting [3]) is 82%. In addition, at adenosine A2A receptor (setting [2]), the “A2A Receptor inhibition rate (%) at 10^−7 mol/L” value (shortened to “A2A Receptor inhibition rate (%)”) is listed as 62%.
`Nc1nc(C(=O)c2ccc(F)cc2)cc2nc(-c3ccco3)nn12` [Compound 40, 5-Amino-7-(4-fluorobenzoyl)-2-(2-furyl)[1,2,4]triazolo-[1,5-c]pyrimidine]: the inhibition in vivo at 10 mg/kg in data set [1] (setting [3]) came to 94%. In addition, the Total score in data set [1] (10 mg/kg orally) was 3. Further, the inhibition at 0.1 µM on adenosine A2A receptor (setting [2]) turned out to be 58%.
As to `Nc1nc(C(=O)N2CCC3CCCCC3C2)cc2nc(-c3ccco3)nn12` (stereo not drawn) [Compound 151, 5-Amino-2-(2-furyl)[1,2,4]triazolo[1,5-c]pyrimidin-7-yl cis-decahydroisoquinolyl ketone], in data set [1] (10 mg/kg orally), the “Number of animals showing remission” value was found to be 8 and the Total score turned out to be 12. In addition, the “Remission ratio (%)” value in data set [1] (setting [3]) is 74%. On adenosine A2A receptor (setting [2]), the “A2A Receptor inhibition rate (%)” value came out at 71%.
For `COc1ccc(CN(C)C(=O)c2cc3nc(-c4ccco4)nn3c(N)n2)cn1` [Compound 131, 5-Amino-2-(2-furyl)[1,2,4]triazolo[1,5-c]pyrimidine-7-carboxylic acid [N-methyl-N-(6-methoxypyridin-3-ylmethyl)]-amide], the inhibition in vivo at 10 mg/kg in data set [1] (setting [3]) is 88%. This compound also gave a Total score in data set [1] (10 mg/kg orally) of 6. Besides, the inhibition at 0.1 µM at adenosine A2A receptor (setting [2]) was determined as 51%.
On the same counts, the results for `COc1ccc(CN(C)C(=O)c2cc3nc(-c4ccco4)nn3c(N)n2)cc1` [Compound 108, 5-Amino-2-(2-furyl)[1,2,4]triazolo[1,5-c]pyrimidine-7-caroboxylic acid [N-(4-methoxybenzyl)-N-methyl]amide monohydrochloride] are 96%, 2 and 65%.
For `CN(Cc1ccc2c(c1)OCO2)C(=O)c1cc2nc(-c3ccco3)nn2c(N)n1` [Compound 107, 5-Amino-2-(2-furyl)[1,2,4]triazolo[1,5-c]pyrimidine-7-carboxylic acid [N-(1,3-benzodioxol-5-ylmethyl)-N-methyl]amide monohydrochloride], the inhibition in vivo at 10 mg/kg in data set [1] (setting [3]) was determined as 90%. Besides, the Total score in data set [1] (10 mg/kg orally) is 5. For the same compound, the inhibition at 0.1 µM on adenosine A2A receptor (setting [2]) is 71%.
In the case of `COCCN1CC=C(c2cc3nc(-c4ccco4)nn3c(N)n2)CC1` [Compound 73, 5-Amino-2-(2-furyl)-7-[1-(2-methoxyethyl)-1,2,3,6-tetra-hydropyridin-4-yl][1,2,4]triazolo[1,5-c]pyrimidine], the inhibition in vivo at 10 mg/kg in data set [1] came to 88%. This compound displayed a Total score in data set [1] (10 mg/kg orally) of 6. For the same compound, the inhibition at 0.1 µM on adenosine A2A receptor amounted to 98%.
Consider `Nc1nc(-c2cc3nc(-c4ccco4)nn3c(N)n2)cs1` [Compound 58, 5-Amino-7-(2-aminothiazol-4-yl)-2-(2-furyl)-[1,2,4]triazolo-[1,5-c]pyrimidine], for which the inhibition in vivo at 10 mg/kg in data set [1] (setting [3]) turned out to be 80%. Besides, the Total score in data set [1] (10 mg/kg orally) was 10. Also, the inhibition at 0.1 µM on adenosine A2A receptor (setting [2]) was determined as 70%.
On the same counts, the results for `CN(Cc1ccccc1Cl)C(=O)c1cc2nc(-c3ccco3)nn2c(N)n1` [Compound 122, 5-Amino-2-(2-furyl)[1,2,4]triazolo[1,5-c]pyrimidine-7-carboxylic acid [N-(2-chlorobenzyl)-N-methyl]amide monohydrochloride] are 80%, 10 and 74%.
With `Nc1nc(C(=O)N2CCCCCC2)cc2nc(-c3ccco3)nn12` [Compound 154, 5-Amino-2-(2-furyl)[1,2,4]triazolo[1,5-c]pyrimidin-7-yl perhydroazepinyl ketone], in data set [1] (10 mg/kg orally), the “Number of animals showing remission” value was 7 and the Total score is 16. In addition, in data set [1] (setting [3]), the “Remission ratio (%)” value was 66%. The “A2A Receptor inhibition rate (%)” value on adenosine A2A receptor (setting [2]) is 56%.
For `CN(Cc1ccnc2ccccc12)C(=O)c1cc2nc(-c3ccco3)nn2c(N)n1` [Compound 113, 5-Amino-2-(2-furyl)[1,2,4]triazolo[1,5-c]pyrimidine-7-carboxylic acid [N-methyl-N-(4-quinolylmethyl)]amide], the inhibition in vivo at 10 mg/kg in data set [1] (setting [3]) was determined as 76%. This compound also registered a Total score in data set [1] (10 mg/kg orally) of 12. Also, the inhibition at 0.1 µM on adenosine A2A receptor (setting [2]) came to 66%.
On to `Nc1nc(/C=C/CNCC2CC2)cc2nc(-c3ccco3)nn12` [Compound 68, 5-Amino-7-[3-(cyclopropylmethylamino)-(E)-propan-1-en-1-yl]-2-(2-furyl)[1,2,4]triazolo[1,5-c]pyrimidine], for which the inhibition at 0.1 µM on adenosine A2A receptor (setting [2]) is 96%.
As to `CC(=O)NCCNCc1ccccc1-c1cc2nc(-c3ccco3)nn2c(N)n1` [Compound 7, 5-Amino-7-{2-[2-(N-acetylamino)ethylaminomethyl]phenyl}-2-(2-furyl)[1,2,4]triazolo[1,5-c]pyrimidine monohydrochloride], the inhibition at 0.1 µM on adenosine A2A receptor (setting [2]) was determined as 64%.

Broadly, the melting point is the temperature, or range, at which the solid turns liquid.
